Patent publication US20140228349A1, “5,7-SUBSTITUTED-IMIDAZO[1,2-C]PYRIMIDINES” (Array BioPharma Inc., priority 2011, published 2014)

What was measured:
Assay type in all cases: biochemical
[1] = molecular target: T1, JAK1 (Homo sapiens, UniProt P23458); assay: JAK1 Inhibition Assay (Omnia kinase fluorescence peptide substrate); conditions: averaged IC50 ranges; 40 μM (Km app) or 1 mM ATP, 15 nM JAK1
T1 construct: purchased Invitrogen Corporation, Carlsbad, Calif; IVGN PV4775
Text: (§1) The assays described in Examples A, B, C and D for the determination of Tyk2, JAK1, JAK2 and JAK3 kinase activity, respectively, utilized the Omnia® Kinase fluorescence peptide substrate-based technology (Invitrogen). The specific components of the assay mixture are described in Examples A, B, C and D. In these assays, Mg^2+ is chelated upon phosphorylation of the Omnia peptide by the kinase to form a bridge between the chelation-enhanced fluorophore Sox and the phosphate, resulting in an increase in fluorescence emission at 485 nm when excited at […]. The reactions were therefore read at excitation 360 nm and emission was measured at 485 nm every 50 seconds for 45 minutes using a PerkinElmer EnVision Multilabel Plate Reader.
(§2) The final buffer conditions for Tyk2, JAK1, JAK2, and JAK3 assays were as follows: 25 mM HEPES, pH 7.4, 10 mM MgCl2, 0.01% Triton X-100 and 1 mM DTT.
(§3) Compounds were prepared at 50× the final concentration in DMSO by conducting 3-fold serial dilutions from a 500-μM intermediate dilution to give a 10-point dosing curve having a high dose of 10 μM. Two-μL aliquots of these were transferred to a fresh plate for a ten-fold intermediate dilution with assay buffer. Five-μL aliquots of the diluted compounds were then transferred to 20-μL of assay mixtures described in Examples A, B, C and D for a final concentration of DMSO of 2%. A standard or reference compound was typically included on each assay plate to validate that plate. For each plate, percent of control (POC) values were calculated for each well according to the following equation: […]
(§4) IC50's were estimated from the POC's using a standard 4-parameter logistic model:
(§5) The IC50 is defined as the concentration of inhibitor at which the POC equals 50 for the fitted curve.
Compounds of Formula I were screened for their ability to inhibit JAK1 using the general enzyme inhibition assay method, in which the assay mixture contained 40 μM (Km app) or 1 mM ATP, 8 μM Omnia® Y12 peptide (Catalog #IVGN KPZ3121C; Invitrogen Corporation, Carlsbad, Calif.) and 15 nM JAK1 in a total volume of 20 μL. JAK1 was purchased from Invitrogen Corporation, Carlsbad, Calif. (catalog #IVGN PV4775).

[2] = molecular target: T2, JAK3 (Homo sapiens, UniProt P52333); assay: JAK3 Inhibition Assay (Omnia kinase fluorescence peptide substrate); conditions: averaged IC50 ranges; 10 μM (Km app) or 1 mM ATP, 2.5 nM JAK3
T2 construct: purchased Invitrogen Corporation, Carlsbad, Calif; IVGN PV4080
T2 sequence (P52333 1-1124): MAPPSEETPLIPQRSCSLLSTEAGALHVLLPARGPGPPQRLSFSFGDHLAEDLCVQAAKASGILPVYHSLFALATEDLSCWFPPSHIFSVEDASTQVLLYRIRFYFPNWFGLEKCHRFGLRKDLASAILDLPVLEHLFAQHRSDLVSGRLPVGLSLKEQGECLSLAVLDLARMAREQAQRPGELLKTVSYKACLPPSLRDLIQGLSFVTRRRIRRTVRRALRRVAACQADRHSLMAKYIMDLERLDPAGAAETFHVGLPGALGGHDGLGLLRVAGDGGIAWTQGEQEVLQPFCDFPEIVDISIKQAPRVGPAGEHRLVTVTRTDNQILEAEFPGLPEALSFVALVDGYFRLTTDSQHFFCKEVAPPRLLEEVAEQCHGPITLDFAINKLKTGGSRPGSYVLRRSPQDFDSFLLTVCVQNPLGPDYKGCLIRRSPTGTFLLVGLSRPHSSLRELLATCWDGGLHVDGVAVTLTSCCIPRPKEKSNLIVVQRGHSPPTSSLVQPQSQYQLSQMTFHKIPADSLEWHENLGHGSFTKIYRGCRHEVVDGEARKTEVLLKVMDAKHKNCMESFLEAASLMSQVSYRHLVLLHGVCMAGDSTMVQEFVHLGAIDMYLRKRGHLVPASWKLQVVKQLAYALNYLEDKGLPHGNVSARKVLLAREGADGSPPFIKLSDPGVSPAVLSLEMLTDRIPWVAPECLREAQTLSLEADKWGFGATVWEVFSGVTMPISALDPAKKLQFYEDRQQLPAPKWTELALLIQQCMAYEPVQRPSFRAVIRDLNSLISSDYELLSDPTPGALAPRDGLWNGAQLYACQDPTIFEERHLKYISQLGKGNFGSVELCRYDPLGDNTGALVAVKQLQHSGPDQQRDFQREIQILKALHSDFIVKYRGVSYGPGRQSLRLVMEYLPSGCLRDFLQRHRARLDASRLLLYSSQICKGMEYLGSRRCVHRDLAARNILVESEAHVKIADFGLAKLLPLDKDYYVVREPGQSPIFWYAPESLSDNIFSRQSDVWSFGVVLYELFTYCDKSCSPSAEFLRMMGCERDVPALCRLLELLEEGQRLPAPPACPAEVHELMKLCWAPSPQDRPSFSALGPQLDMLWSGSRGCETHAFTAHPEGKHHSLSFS
Text: as §1, §2, §3, §4, §5
(§6) Compounds of Formula I were screened for their ability to inhibit JAK3 using the general enzyme inhibition assay method, in which the assay mixture contained 10 μM (Km app) or 1 mM ATP, 10 μM Omnia® Y7 peptide (Catalog #IVGN KNZ3071C, Invitrogen Corporation, Carlsbad, Calif.) and 2.5 nM JAK3 in a total volume of 20 μL. JAK3 was purchased from Invitrogen Corporation, Carlsbad, Calif. (catalog #IVGN PV4080).

[3] = molecular target: T3, JAK2 (Homo sapiens, UniProt O60674); assay: JAK2 Inhibition Assay (Omnia kinase fluorescence peptide substrate); conditions: averaged IC50 ranges; 25 μM (Km app) or 1 mM ATP, 5 nM JAK2
T3 construct: purchased Invitrogen Corporation, Carlsbad, Calif; IVGN PV4288
T3 sequence (O60674 whole entry): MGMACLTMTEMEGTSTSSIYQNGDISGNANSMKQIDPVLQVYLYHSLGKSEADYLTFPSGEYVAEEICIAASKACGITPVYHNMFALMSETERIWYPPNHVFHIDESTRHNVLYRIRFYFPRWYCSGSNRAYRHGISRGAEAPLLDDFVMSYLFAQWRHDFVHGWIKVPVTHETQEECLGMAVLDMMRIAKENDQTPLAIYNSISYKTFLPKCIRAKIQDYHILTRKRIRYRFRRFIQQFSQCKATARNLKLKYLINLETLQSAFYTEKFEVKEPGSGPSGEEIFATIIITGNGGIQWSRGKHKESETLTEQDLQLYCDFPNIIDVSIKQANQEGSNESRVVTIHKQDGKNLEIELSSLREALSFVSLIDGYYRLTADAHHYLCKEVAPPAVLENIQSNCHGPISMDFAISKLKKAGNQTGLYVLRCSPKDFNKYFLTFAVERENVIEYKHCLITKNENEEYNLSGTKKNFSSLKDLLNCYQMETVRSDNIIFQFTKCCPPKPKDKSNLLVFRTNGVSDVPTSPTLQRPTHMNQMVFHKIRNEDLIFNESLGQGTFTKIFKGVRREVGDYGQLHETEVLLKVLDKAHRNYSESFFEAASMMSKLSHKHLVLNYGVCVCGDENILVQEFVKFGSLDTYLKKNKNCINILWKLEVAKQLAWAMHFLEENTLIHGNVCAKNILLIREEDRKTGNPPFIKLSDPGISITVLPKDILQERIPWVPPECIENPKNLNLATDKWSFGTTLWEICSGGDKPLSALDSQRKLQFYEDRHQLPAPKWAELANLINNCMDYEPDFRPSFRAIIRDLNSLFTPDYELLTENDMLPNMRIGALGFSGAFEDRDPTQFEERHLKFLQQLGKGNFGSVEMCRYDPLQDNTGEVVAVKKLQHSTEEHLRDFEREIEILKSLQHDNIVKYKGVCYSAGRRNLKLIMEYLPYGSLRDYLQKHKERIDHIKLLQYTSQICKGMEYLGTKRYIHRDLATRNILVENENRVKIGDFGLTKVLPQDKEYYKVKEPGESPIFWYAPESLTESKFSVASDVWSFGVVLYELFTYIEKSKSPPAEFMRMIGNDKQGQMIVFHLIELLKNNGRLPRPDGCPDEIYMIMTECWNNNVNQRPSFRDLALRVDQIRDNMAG
Text: as §1, §2, §3, §4, §5
as §6, with “inhibit JAK2” for “inhibit JAK3”, “contained 25” for “contained 10”, “and 5” for “and 2.5”, “nM JAK2” for “nM JAK3”, “μL. JAK2” for “μL. JAK3”, “#IVGN PV4288).” for “#IVGN PV4080).”

[4] = molecular target: T4, Human Tyk2 kinase domain (Homo sapiens, UniProt P29597); assay: Tyk2 Inhibition Assay (Omnia kinase fluorescence peptide substrate); conditions: averaged IC50 ranges; 10 μM (Km app) or 1 mM ATP, 2 nM Tyk2
T4 construct: comprising amino acids 886 to 1187; His10 (10 histidine residues) (C, cleaved yes); made in house
T4 sequence (P29597 886-1187): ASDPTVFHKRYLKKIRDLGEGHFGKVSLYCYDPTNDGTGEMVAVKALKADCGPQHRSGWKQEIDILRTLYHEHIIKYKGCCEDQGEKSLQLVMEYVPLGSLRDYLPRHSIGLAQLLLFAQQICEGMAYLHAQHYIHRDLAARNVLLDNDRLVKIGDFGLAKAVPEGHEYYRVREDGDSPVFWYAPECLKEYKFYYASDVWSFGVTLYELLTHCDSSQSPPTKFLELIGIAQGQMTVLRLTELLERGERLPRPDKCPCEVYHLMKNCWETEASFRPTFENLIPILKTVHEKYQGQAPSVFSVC
Text: as §1, §2, §3, §4, §5
Compounds of Formula I were screened for their ability to inhibit Tyk2 using the general enzyme inhibition assay method, in which the assay mixture contained 10 μM (Km app) or 1 mM ATP, 8 μM Omnia® Y12 peptide (Catalog #IVGN KPZ3121C; Invitrogen Corporation, Carlsbad, Calif.) and 2 nM Tyk2 in a total volume of 20 μL. Human Tyk2 kinase domain, comprising amino acids 886 to 1187 with 10 additional histidine residues (histidine tag) on the carboxy terminus, was expressed and purified from bacculovirus in-house at Array BioPharma Inc. (Boulder, Colo.). The histidine tag was cleaved after purification using standard conditions.

T1 sequence (P23458 whole entry): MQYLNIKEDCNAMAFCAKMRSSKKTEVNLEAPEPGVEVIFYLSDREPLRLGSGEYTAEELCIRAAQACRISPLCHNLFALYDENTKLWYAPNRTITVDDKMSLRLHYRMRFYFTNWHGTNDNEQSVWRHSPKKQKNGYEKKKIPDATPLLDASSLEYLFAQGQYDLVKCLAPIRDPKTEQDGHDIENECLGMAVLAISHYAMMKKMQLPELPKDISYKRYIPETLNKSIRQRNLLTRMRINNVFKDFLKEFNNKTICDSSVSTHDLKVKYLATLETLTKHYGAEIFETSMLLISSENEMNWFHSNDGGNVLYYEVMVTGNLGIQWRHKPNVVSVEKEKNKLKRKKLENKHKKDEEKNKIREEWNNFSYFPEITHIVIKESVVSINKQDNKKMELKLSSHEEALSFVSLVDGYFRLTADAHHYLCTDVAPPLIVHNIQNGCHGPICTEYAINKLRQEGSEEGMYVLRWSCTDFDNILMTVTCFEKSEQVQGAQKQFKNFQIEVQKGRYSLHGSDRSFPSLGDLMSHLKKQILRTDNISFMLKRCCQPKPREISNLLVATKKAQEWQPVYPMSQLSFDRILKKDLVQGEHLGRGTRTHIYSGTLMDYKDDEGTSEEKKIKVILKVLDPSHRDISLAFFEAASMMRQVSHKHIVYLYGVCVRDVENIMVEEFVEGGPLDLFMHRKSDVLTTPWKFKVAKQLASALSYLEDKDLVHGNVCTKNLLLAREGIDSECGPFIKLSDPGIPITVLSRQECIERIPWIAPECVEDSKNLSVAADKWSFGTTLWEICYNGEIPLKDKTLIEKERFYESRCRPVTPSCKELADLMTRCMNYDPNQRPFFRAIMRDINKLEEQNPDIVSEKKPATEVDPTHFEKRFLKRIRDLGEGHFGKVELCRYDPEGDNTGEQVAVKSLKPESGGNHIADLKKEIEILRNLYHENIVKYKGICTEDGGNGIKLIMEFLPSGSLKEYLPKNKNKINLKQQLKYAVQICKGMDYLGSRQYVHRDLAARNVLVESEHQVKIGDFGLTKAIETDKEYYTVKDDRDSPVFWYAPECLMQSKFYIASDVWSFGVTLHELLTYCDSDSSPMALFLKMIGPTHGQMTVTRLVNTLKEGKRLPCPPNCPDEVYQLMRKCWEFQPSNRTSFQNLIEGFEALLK

IC50 [1] | IC50 [2] | IC50 [3] | IC50 [4] | Structure (SMILES)
> 1000 nM | > 1000 nM | 100 to 1000 nM | 100 to 1000 nM | Cn1cc(-c2cc3nccn3c(-c3cnn(C(CCO)C4CC4)c3)n2)cn1 (stereo not drawn) [Example 13, 3-cyclopropyl-3-(4-(7-(1-methyl-1H-pyrazol-4-yl)imidazo[1,2-c]pyrimidin-5-yl)-1H-pyrazol-1-yl)propan-1-ol]
> 1000 nM | > 1000 nM | 100 to 1000 nM | 10 to 100 nM | CC(C1CC1)n1cc(-c2nc(-c3cnn(C)c3)cc3nccn23)cn1 (stereo not drawn) [Example 14, 5-(1-(1-Cyclopropylethyl)-1H-pyrazol-4-yl)-7-(1-methyl-1H-pyrazol-4-yl)imidazo[1,2-c]pyrimidine]
100 to 1000 nM | 100 to 1000 nM | 10 to 100 nM | 10 to 100 nM | CCCC(C1CC1)n1cc(-c2nc(-c3cnn(C)c3)cc3nccn23)cn1 (stereo not drawn) [Example 15, 5-(1-(1-Cyclopropylbutyl)-1H-pyrazol-4-yl)-7-(1-methyl-1H-pyrazol-4-yl)imidazo[1,2-c]pyrimidine]
100 to 1000 nM | > 1000 nM | 100 to 1000 nM | 10 to 100 nM | Cn1cc(-c2cc3nccn3c(-c3cnn(C4(C)CN(S(=O)(=O)C(F)(F)F)C4)c3)n2)cn1 [Example 16, 5-(1-(3-Methyl-1-(trifluoromethylsulfonyl)azetidin-3-yl)-1H-pyrazol-4-yl)-7-(1-methyl-1H-pyrazol-4-yl)imidazo[1,2-c]pyrimidine]
100 to 1000 nM | 100 to 1000 nM | 10 to 100 nM | < 10 nM | Cn1cc(-c2cc3nccn3c(-c3cnn(C(CCF)C4CC4)c3)n2)cn1 (stereo not drawn) [Example 17, 5-(1-(1-Cyclopropyl-3-fluoropropyl)-1H-pyrazol-4-yl)-7-(1-methyl-1H-pyrazol-4-yl)imidazo[1,2-c]pyrimidine]
100 to 1000 nM | 100 to 1000 nM | 10 to 100 nM | < 10 nM | Cn1cc(-c2cc3nccn3c(-c3cnn(C4(CCF)CN(S(=O)(=O)C(F)(F)F)C4)c3)n2)cn1 [Example 18, 5-(1-(3-(2-Fluoroethyl)-1-(trifluoromethylsulfonyl)azetidin-3-yl)-1H-pyrazol-4-yl)-7-(1-methyl-1H-pyrazol-4-yl)imidazo[1,2-c]pyrimidine]
> 1000 nM | > 1000 nM | 100 to 1000 nM | 10 to 100 nM | Cn1cc(-c2cc3nccn3c(-c3cnn(C4(CCF)CN(CC(F)(F)F)C4)c3)n2)cn1 [Example 19, 5-(1-(3-(2-Fluoroethyl)-1-(2,2,2-trifluoroethyl)azetidin-3-yl)-1H-pyrazol-4-yl)-7-(1-methyl-1H-pyrazol-4-yl)imidazo[1,2-c]pyrimidine]
100 to 1000 nM | 100 to 1000 nM | 10 to 100 nM | 10 to 100 nM | CCC1(n2cc(-c3nc(-c4cnn(C)c4)cc4nccn34)cn2)CN(S(=O)(=O)C(F)(F)F)C1 [Example 20, 5-(1-(3-ethyl-1-(trifluoromethylsulfonyl)azetidin-3-yl)-1H-pyrazol-4-yl)-7-(1-methyl-1H-pyrazol-4-yl)imidazo[1,2-c]pyrimidine]
100 to 1000 nM | 100 to 1000 nM | 10 to 100 nM | 10 to 100 nM | CSCCn1cc(-c2nc(-c3cnn(C)c3)cc3nccn23)cn1 [Example 21, 7-(1-methyl-1H-pyrazol-4-yl)-5-(1-(2-(methylthio)ethyl)-1H-pyrazol-4-yl)imidazo[1,2-c]pyrimidine]
100 to 1000 nM | 100 to 1000 nM | 100 to 1000 nM | 10 to 100 nM | Cn1cc(-c2cc3nccn3c(-c3ccn(C4(CCF)CN(CC#N)C4)c3)n2)cn1 [Example 22, 2-(3-(2-fluoroethyl)-3-(3-(7-(1-methyl-1H-pyrazol-4-yl)imidazo[1,2-c]pyrimidin-5-yl)-1H-pyrrol-1-yl)azetidin-1-yl)acetonitrile]
10 to 100 nM | 10 to 100 nM | 10 to 100 nM | < 10 nM | Cn1cc(-c2cc3nccn3c(-c3ccn([C@H](CCF)[C@H]4CC4(F)F)c3)n2)cn1 [Example 23, 5-(1-((R)-1-((R)-2,2-difluorocyclopropyl)-3-fluoropropyl)-1H-pyrrol-3-yl)-7-(1-methyl-1H-pyrazol-4-yl)imidazo[1,2-c]pyrimidine]
10 to 100 nM | 100 to 1000 nM | 10 to 100 nM | < 10 nM | Cn1cc(-c2cc3nccn3c(-c3ccn([C@@H](CCF)[C@@H]4CC4(F)F)c3)n2)cn1 [Example 24, 5-(1-((S)-1-((S)-2,2-difluorocyclopropyl)-3-fluoropropyl)-1H-pyrrol-3-yl)-7-(1-methyl-1H-pyrazol-4-yl)imidazo[1,2-c]pyrimidine]
